The values below come from US20240150365A1 (Hotspot Therapeutics, Inc., priority 2022, published 2024).

In one test the test system is NF-kB. The test can be described thus: NF-kB reporter assay in Jurkat cells stimulated with aCD3/aCD28/PMA. It is filed as cell-based. The conditions noted are these: Homo sapiens, Jurkat, Jurkat cells, 1 hr compound incubation, aCD3/aCD28/PMA stimulation 4 hr, One-Glo readout; read-out: NF-kB Reporter Assay IC50. A digest of the protocol: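 Stimulation used final aCD3 5 μg/mL, aCD28 5 μg/mL and PMA 0.03 μg/mL for 4 hr at 37° C, after 1 hr compound pretreatment of 25,000 serum-starved Jurkat cells per well. One-Glo luminescence gave IC50 values.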

In a further test the target is T1, MALT1 (Homo sapiens, UniProt Q9UDY8).
T1 construct: Avi-tagged FL MALT-1 (Pharmaron, stored at −70° C.); Avi tag
T1 sequence (Q9UDY8 1-824): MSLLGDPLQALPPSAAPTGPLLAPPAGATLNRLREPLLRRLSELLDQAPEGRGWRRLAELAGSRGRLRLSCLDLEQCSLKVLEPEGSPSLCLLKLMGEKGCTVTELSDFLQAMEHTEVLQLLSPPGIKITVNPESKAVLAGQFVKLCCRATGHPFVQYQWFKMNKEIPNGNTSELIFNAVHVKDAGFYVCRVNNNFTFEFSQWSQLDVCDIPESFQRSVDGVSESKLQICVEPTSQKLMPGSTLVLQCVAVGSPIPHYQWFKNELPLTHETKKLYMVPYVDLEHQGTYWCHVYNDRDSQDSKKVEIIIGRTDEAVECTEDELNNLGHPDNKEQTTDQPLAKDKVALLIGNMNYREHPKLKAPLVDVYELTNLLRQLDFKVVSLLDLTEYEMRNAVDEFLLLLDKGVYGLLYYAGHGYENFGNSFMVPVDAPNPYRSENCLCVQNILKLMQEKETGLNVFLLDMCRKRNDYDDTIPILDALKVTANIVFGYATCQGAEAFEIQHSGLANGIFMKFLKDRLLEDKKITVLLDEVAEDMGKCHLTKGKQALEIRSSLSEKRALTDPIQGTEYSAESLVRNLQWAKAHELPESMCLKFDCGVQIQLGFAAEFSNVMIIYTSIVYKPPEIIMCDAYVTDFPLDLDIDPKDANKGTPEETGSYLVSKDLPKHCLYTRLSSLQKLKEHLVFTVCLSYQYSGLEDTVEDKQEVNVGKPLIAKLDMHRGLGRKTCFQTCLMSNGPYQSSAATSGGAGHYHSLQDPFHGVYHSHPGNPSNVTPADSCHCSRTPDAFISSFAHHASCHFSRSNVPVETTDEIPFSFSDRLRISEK
The test can be described thus: MALT-1 Fluorogenic Peptide Cleavage Assay (MALT1 inhibition assay). It counts as biochemical. The conditions noted are these: Avi-tagged FL MALT-1, Ac-LRSR-AMC peptide substrate, 30 min pre-incubation, 90 min reaction. A digest of the protocol: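 IC50 from sigmoidal fits of % inhibition, with fluorescence (ex 342, em 441 nm) from AMC released from the quenched LRSR peptide after 90 min at room temperature. Full-length Avi-tagged MALT1 saw compound for 30 min first; final DMSO 2%.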

With `Cn1ncc2cccc(NS(=O)(=O)c3ccc(-c4cncc(Cl)c4)nc3)c21` [Example I-121, 5′-Chloro-N-(1-Methyl-1H-Indazol-7-yl)-[2,3′-Bipyridine]-5-Sulfonamide], the IC50 was under 400 nM with NF-kB and over 2500 nM against MALT1.

For the compound `Cc1ccc(-c2ccc(S(=O)(=O)Nc3cccc4cnn(C)c34)cn2)cn1` [Example I-122, 6′-Methyl-N-(1-Methyl-1H-Indazol-7-yl)-[2,3′-Bipyridine]-5-Sulfonamide], the half-inhibitory concentration (IC50) is under 400 nM in the test with NF-kB and over 2500 nM at MALT1.

Regarding `Cc1ccncc1-c1ccc(S(=O)(=O)Nc2cccc3cnn(C)c23)cn1` [Example I-123, 4′-Methyl-N-(1-Methyl-1H-Indazol-7-yl)-2,3′-Bipyridine-5-Sulfonamide], the IC50 is 400 to 1000 nM in the test on NF-kB and over 2500 nM against MALT1.

Take `Cc1cnn(C)c1-c1ccc(S(=O)(=O)Nc2cccc3cnn(C)c23)cn1` [Example I-124, 6-(1,4-Dimethyl-1H-Pyrazol-5-yl)-N-(1-Methyl-1H-Indazol-7-yl)Pyridine-3-Sulfonamide]: the IC50 in the test on NF-kB and against MALT1 was over 2500 nM throughout.

Turning to `COc1nn(C)cc1-c1ccc(S(=O)(=O)Nc2cccc3cnn(C)c23)cn1` [Example I-125, 6-(3-Methoxy-1-Methyl-1H-Pyrazol-4-yl)-N-(1-Methyl-1H-Indazol-7-yl)Pyridine-3-Sulfonamide], the concentration for half-maximal inhibition (IC50) in the test on NF-kB is under 400 nM; against MALT1 it was over 2500 nM.

For the compound `CCc1ccc2cnn(C)c2c1NS(=O)(=O)c1ccc(-n2nccc2C(F)(F)F)nc1` [Example I-126, N-(6-ethyl-1-methyl-1H-indazol-7-yl)-6-(5-(trifluoromethyl)-1H-pyrazol-1-yl)pyridine-3-sulfonamide], the half-inhibitory concentration (IC50) in the test on NF-kB and on MALT1 was under 400 nM in each case.

As to `COc1ccc2cnn(C)c2c1NS(=O)(=O)c1ccc(-n2ccc(C(F)F)n2)nc1` [Example I-127, 6-(3-(Difluoromethyl)-1H-Pyrazol-1-yl)-N-(6-Methoxy-1-Methyl-1H-Indazol-7-yl)Pyridine-3-Sulfonamide], the IC50 in the test on NF-kB and on MALT1 was under 400 nM each time.

As for `COc1ccc2nnn(C)c2c1NS(=O)(=O)c1ccc(-n2ccc(C(F)(F)F)n2)nc1` [Example I-128, N-(6-methoxy-1-methyl-1H-benzo[d][1,2,3]triazol-7-yl)-6-(3-(trifluoromethyl)-1H-pyrazol-1-yl)pyridine-3-sulfonamide], the half-maximal inhibitory concentration (IC50) was 400 to 1000 nM in the test with NF-kB and 1000 to 2500 nM against MALT1.

Consider `COc1ccc2cnn(C)c2c1NS(=O)(=O)c1ccc(-n2cc(C)c(C)n2)nc1` [Example I-129, 6-(3,4-dimethyl-1H-pyrazol-1-yl)-N-(6-methoxy-1-methyl-1H-indazol-7-yl)pyridine-3-sulfonamide], for which the IC50 in the test with NF-kB and at MALT1 was under 400 nM in each case.

With `Cn1ncc2cccc(NS(=O)(=O)c3ccc(-c4cncc(C#N)c4)nc3)c21` [Example I-130, 5′-cyano-N-(1-methylindazol-7-yl)-[2,3′-bipyridine]-5-sulfonamide], the half-maximal inhibitory concentration (IC50) is 1000 to 2500 nM in the test with NF-kB and over 2500 nM on MALT1.

In the case of `Cc1cncc(-c2ccc(S(=O)(=O)Nc3cccc4cnn(C)c34)cn2)c1` [Example I-131, 5′-methyl-N-(1-methylindazol-7-yl)-[2,3′-bipyridine]-5-sulfonamide], the IC50 is under 400 nM in the test on NF-kB and over 2500 nM against MALT1.

Take `Cc1cc(-c2ccc(S(=O)(=O)Nc3cccc4cnn(C)c34)cn2)ccn1` [Example I-132, 2′-methyl-N-(1-methylindazol-7-yl)-[2,4′-bipyridine]-5-sulfonamide]: the values for the half-maximal inhibitory concentration (IC50) in the test on NF-kB and against MALT1 were under 400 nM and over 2500 nM, respectively.

For the compound `Cn1ncc2cccc(NS(=O)(=O)c3ccc(-c4cncnc4)nc3)c21` [Example I-133, N-(1-methylindazol-7-yl)-6-(pyrimidin-5-yl)pyridine-3-sulfonamide], the concentration for half-maximal inhibition (IC50) in the test on NF-kB and against MALT1 was over 2500 nM throughout.

As for `Cn1ncc2cccc(NS(=O)(=O)c3ccc(-c4cncc(F)c4)nc3)c21` [Example I-134, 5′-Fluoro-N-(1-Methyl-1H-Indazol-7-yl)-[2,3′-Bipyridine]-5-Sulfonamide], the half-maximal inhibitory concentration (IC50) is under 400 nM with NF-kB and over 2500 nM against MALT1.

Regarding `Cc1ncc(-c2ccc(S(=O)(=O)Nc3cccc4cnn(C)c34)cn2)cn1` [Example I-135, N-(1-Methyl-1H-Indazol-7-yl)-6-(2-Methylpyrimidin-5-yl)Pyridine-3-Sulfonamide], the IC50 in the test on NF-kB was 400 to 1000 nM; against MALT1, over 2500 nM.

In the case of `Cn1ncc2cccc(NS(=O)(=O)c3ccc(-c4ccc(O)nc4)nc3)c21` [Example I-136, 6′-Hydroxy-N-(1-Methyl-1H-Indazol-7-yl)-[2,3′-Bipyridine]-5-Sulfonamide], the half-maximal inhibitory concentration (IC50) with NF-kB and on MALT1 was over 2500 nM in each case.

`Cn1ncc2cccc(NS(=O)(=O)c3ccc(-c4cncc(S(C)(=O)=O)c4)nc3)c21` [Example I-137, N-(1-Methyl-1H-Indazol-7-yl)-5′-(Methylsulfonyl)-[2,3′-Bipyridine]-5-Sulfonamide]: the IC50 with NF-kB and against MALT1 was over 2500 nM each time.

As for `Cn1ncc2cccc(NS(=O)(=O)c3ccc(-c4ccn(C(F)F)n4)nc3)c21` [Example I-138, 6-(1-(Difluoromethyl)-1H-Pyrazol-3-yl)-N-(1-Methyl-1H-Indazol-7-yl)Pyridine-3-Sulfonamide], the IC50 is under 400 nM with NF-kB and over 2500 nM at MALT1.

`COc1ncccc1-c1ccc(S(=O)(=O)Nc2cccc3cnn(C)c23)cn1` [Example I-139, 2′-Methoxy-N-(1-Methyl-1H-Indazol-7-yl)-[2,3′-Bipyridine]-5-Sulfonamide]: the half-maximal inhibitory concentration (IC50) is under 400 nM in the test on NF-kB and over 2500 nM at MALT1.

Consider `COc1ccc2cnn(C)c2c1NS(=O)(=O)c1ccc(-n2nc(C)c(C)c2C)nc1` [Example I-140, N-(6-Methoxy-1-Methyl-1H-Indazol-7-yl)-6-(3,4,5-Trimethyl-1H-Pyrazol-1-yl)Pyridine-3-Sulfonamide], for which the IC50 in the test on NF-kB and against MALT1 was under 400 nM throughout.

As for `COc1ccc2cnn(C)c2c1NS(=O)(=O)c1ccc(-n2nc(C)c(Cl)c2C)nc1` [Example I-141, 6-(4-Chloro-3,5-Dimethyl-1H-Pyrazol-1-yl)-N-(6-Methoxy-1-Methyl-1H-Indazol-7-yl)Pyridine-3-Sulfonamide], the half-inhibitory concentration (IC50) with NF-kB and at MALT1 was under 400 nM throughout.

On to `COc1ccc2cnn(C)c2c1NS(=O)(=O)c1ccc(-n2nc(C)cc2C)nc1` [Example I-142, 6-(3,5-Dimethyl-1H-Pyrazol-1-yl)-N-(6-Methoxy-1-Methyl-1H-Indazol-7-yl)Pyridine-3-Sulfonamide], for which the IC50 in the test on NF-kB and at MALT1 was under 400 nM throughout.

As to `Cn1ccc2cccc(NS(=O)(=O)c3ccc(-c4cc(C(F)(F)F)n[nH]4)nc3)c21` [Example I-143, N-(1-Methyl-1H-Indol-7-yl)-6-(5-(Trifluoromethyl)-1H-Pyrazol-3-yl)Pyridine-3-Sulfonamide], the half-maximal inhibitory concentration (IC50) with NF-kB and at MALT1 was under 400 nM each time.

As for `COc1ccc2cnn(C)c2c1NS(=O)(=O)c1ccc(-n2nnc(C)n2)nc1` [Example I-144, N-(6-Methoxy-1-Methyl-1H-Indazol-7-yl)-6-(5-Methyl-2H-Tetrazol-2-yl)Pyridine-3-Sulfonamide], the IC50 in the test with NF-kB and against MALT1 was over 2500 nM in each case.

Consider `Cn1ncc2cccc(NS(=O)(=O)c3ccc(-c4cnn(CCO)c4)nc3)c21` [Example I-146, 6-(1-(2-Hydroxyethyl)-1H-Pyrazol-4-yl)-N-(1-Methyl-1H-Indazol-7-yl)Pyridine-3-Sulfonamide], for which the concentration for half-maximal inhibition (IC50) in the test with NF-kB and on MALT1 was over 2500 nM each time.

Turning to `COc1ccc2cnn(C)c2c1NS(=O)(=O)c1ccc(-n2nccc2C2CC2)nc1` [Example I-147, 6-(5-Cyclopropyl-1H-Pyrazol-1-yl)-N-(6-Methoxy-1-Methyl-1H-Indazol-7-yl)Pyridine-3-Sulfonamide], the IC50 is 400 to 1000 nM in the test on NF-kB and over 2500 nM at MALT1.

In the case of `COc1ccc2cnn(C)c2c1NS(=O)(=O)c1ccc(-n2ncc(C)c2C)nc1` [Example I-148, 6-(4,5-Dimethyl-1H-Pyrazol-1-yl)-N-(6-Methoxy-1-Methyl-1H-Indazol-7-yl)Pyridine-3-Sulfonamide], the half-maximal inhibitory concentration (IC50) in the test on NF-kB and at MALT1 was under 400 nM in each case.
